Measurements published in patent US20030139361A1, “Drug for gene therapy” (priority 2000, published 2003).

System: spleen cells derived from PVG rat and mitomycin-treated DA rat
Experiment: Lymphocyte mixed culture test (BrdU incorporation)
Format: cell-based
Conditions: 4 days culture, BrdU 10 μM for last 16 hours; FIG. 2
Protocol: To study the immunosuppressive activity of the human IDO protein prepared in Example 10, a lymphocyte mixed culture test was carried out. The spleen cells derived from a non-treated PVG rat and the spleen cells derived from a DA rat treated with 25 μg/ml of mitomycin (SIGMA-Aldrich Corporation) were seeded on a U bottom 96-well plate (NUNC Inc.) at 5×10^4/well and at 8×10^6/well, respectively. The IDO protein was then added and culturing was done for 4 days. Sixteen hours before the finish of culturing 5-bromo-2′deoxyuridine (BrdU) was added at a final concentration of 10 μM. The amount of BrdU incorporated into the intracellular DNA was quantified using a BrdU Labeling & Detection Kit III (Roche Diagnostics Inc.).

## human IDO protein: Recombinant human indoleamine 2,3-dioxygenase protein prepared in Example 10 from E. coli
  immunosuppressive activity (amount of BrdU incorporated into intracellular DNA): showed the immunosuppressive activity in a concentration-dependent manner
